Laboratory results published in US3959272A, “Aminoalkyl esters of 2-anilino-nicotinic acids” (Societe Anonyme dite: Hexachime, priority 1972, dated 1976).

Key:
[1] = Analgesic activity: Siegmund's test (phenylbenzoquinone painful reactions); assay type: in vivo; settings: Mus musculus, po, read-out: percentage inhibition of reactions
Experimental: This activity was measured by Siegmund's test in mice and Randall and Selitto's test in the rat.
Groups of six mice received the compound under test orally 1 hour before intraperitoneal injection of 0.2 ml of an 0.02% of solution of phenylbenzoquinone. The number of painful reactiors from the fifth to the tenth minute after the injection of phenylbenzoquinone was counted.

Escape test = assay type: in vivo; settings: Mus musculus, ip, 0.5 h, read-out: Percentage inhibition (number of attempts to escape)
Experimental: Groups of 8 mice were placed in sub groups of 4 in an enclosure from which they could escape by an inclined plane. The number of attempts to escape during 5 minutes were counted half an hour after intraperitoneal administration of the compound under test.

[2] = Cardiovascular parameters: atropinised and bivagotomised dogs; assay type: in vivo, dog
Experimental: (§1) Unsorted dogs of either sex weighing 8 to 17 kg and anaesthetised by chloralose in solution in polyethylene glycol 300 (0.12 g/kg) were respirated artificially using a Bird pump (Mark 7). The carotid arterial blood pressure was measured with the aid of a Statham P 23 dB device. The left ventricular pressure is measured with the same device connected by a supple catheter introduced by the femoral artery and pushed into the left ventricle. The cardiac rhythm is measured from the signals of the carotid pressure. The myocardial contractile force is measured using a strain gauge (Apelab) attached to the right ventricle. All the parameters are recorded on a Beckman polygraph. Two series of dogs are used to test the cardiovascular activity: 5 dogs atropinised (1 mg/kg intravenously) and bivagotomised; and a second series of 4 intact dogs. The product of Example 1 was injected through the saphena vein and the duration of the injection was 2 minutes.
The following Table VIII gives the variations of the recorded parameters and their significance according to the t test (* p< 0.05; ** p<0.01).

[3] = Cardiovascular parameters: intact dogs; assay type: in vivo, dog; settings: for Average pressure / Diastolic pressure / Systolic pressure: in % (unit assumed)
Experimental: as §1
The following Table IX gives the variations of the parameters recorded and their significance according to the t test (* p<0.05; ** p<0.01; *** p<0.001).

[4] = Action on the activity of noradrenaline in dogs; settings: dog, in vivo
[5] = Action on isoprenaline in dogs; assay type: in vivo, dog; settings: only if atropinised and bivagotomised
[6] = Acute toxicity in the rat; settings: in vivo
[7] = Acute toxicity in the mouse; settings: in vivo
[8] = dog, in vivo
Experimental: The product of Example 1 was perfused in the dog at a dosage of 50 mg/minute by the saphena vein. Cardiac arrest was produced by a dose of 344 mg/kg.

[9] = Chronic toxicity in beagle dogs, 3 months; assay type: in vivo, beagle dog; settings: 150 mg/kg each day for 3 months
Experimental: Six beagle dogs (3 male and 3 female) received each day for 3 months 150 mg/kg of the product of Example 1.

[10] = Post-operative pain following bone surgery, patients; assay type: in vivo, human (patients)
Experimental: The product of Example 1 has been administered to patients suffering from post-operative pain following bone surgery. 10 Patients received the compound at a daily dosage of 150 mg orally. Complete or partial analgesia was felt by 5 patients and slight analgesia by a further 4. When administered intramuscularly at a dosage of 20 to 100 mg per day to 9 patients, the product of Example 1 produced complete analgesia in 5, partial analgesia in 2 and slight analgesia in the remaining 2. […] Eight patients received the product of Example 1 rectally in a dosage of 300 mg per day.

Solubility in water = assay type: physicochemical
[11] = 5 mg/kg intravenously, 5 dogs, * p<0.05
[12] = 8 mg/kg intravenously, 5 dogs, ** p<0.01
[13] = 16 mg/kg intravenously, 4 dogs, ** p<0.01
[14] = 150 mg daily orally, 10 patients
[15] = 300 mg per day rectally, eight patients
[16] = 20 to 100 mg per day intramuscularly, 9 patients
[17] = 50 to 100 mg per day intravenously, slow injection, 13 patients

Structure (SMILES): Cc1cccc(Nc2ncccc2C(=O)OCCN2CCOCC2)c1C [Example 1, β-Morpholino ethyl nixylate]
- inhibition in vivo at 4 mg/kg ([1]; 4 mg/kg orally): 10%
- inhibition in vivo at 8 mg/kg ([1]; 8 mg/kg orally): 26%
- inhibition in vivo at 16 mg/kg ([1]; 16 mg/kg orally): 26%
- inhibition in vivo at 32 mg/kg ([1]; 32 mg/kg orally): 45%
- inhibition in vivo at 64 mg/kg ([1]; 64 mg/kg orally): 64%
- inhibition in vivo at 128 mg/kg ([1]; 128 mg/kg orally): 83%
- inhibition in vivo at 256 mg/kg ([1]; 256 mg/kg orally): 95%
- change in vivo at 8 mg/kg (Escape test; 8 mg/kg intraperitoneally): 6%
- change in vivo at 16 mg/kg (Escape test; 16 mg/kg intraperitoneally): 3%
- change in vivo at 32 mg/kg (Escape test; 32 mg/kg intraperitoneally): -8%
- change in vivo at 64 mg/kg (Escape test; 64 mg/kg intraperitoneally): -51%
- change in vivo at 128 mg/kg (Escape test; 128 mg/kg intraperitoneally): -100%
- Average blood pressure ([2]; 1 mg/kg intravenously, 5 dogs): -4±2%
- Diastolic blood pressure ([2]; 1 mg/kg intravenously, 5 dogs): -4±2%
- Systolic blood pressure ([2]; 1 mg/kg intravenously, 5 dogs): -3,3±3%
- Average blood pressure ([2]; 2 mg/kg intravenously, 2 dogs): -12%
- Diastolic blood pressure ([2]; 2 mg/kg intravenously, 2 dogs): -12%
- Duration of reduced blood pressure ([2]; 2 mg/kg intravenously, 2 dogs): 30
- Systolic blood pressure ([2]; 2 mg/kg intravenously, 2 dogs): -12%
- Change in cardiac rhythm ([2]; 5 mg/kg intravenously, 5 dogs): -8 to -20 beats per minute
- Diastolic blood pressure [2, 11]: -15±4%
- Systolic blood pressure [2, 11]: -13±3%
- Average blood pressure ([2]; 5 mg/kg intravenously, 5 dogs, ** p<0.01): -14±3%
- Change in cardiac rhythm ([2]; 8 mg/kg intravenously, 5 dogs): -8 to -20 beats per minute
- Average blood pressure [2, 12]: -26±5%
- Diastolic blood pressure [2, 12]: -27±5%
- Systolic blood pressure [2, 12]: -24±5%
- Average blood pressure ([2]; 16 mg/kg intravenously, 2 dogs): -31%
- Change in cardiac rhythm ([2]; 16 mg/kg intravenously, 2 dogs): -18 to -24 beats per minute
- Diastolic blood pressure ([2]; 16 mg/kg intravenously, 2 dogs): -32%
- Duration of reduced blood pressure ([2]; 16 mg/kg intravenously, 2 dogs): > 30
- Systolic blood pressure ([2]; 16 mg/kg intravenously, 2 dogs): -30%
- blood pressure ([2]; doses of 4 mg/kg and above, during the injection or one to two minutes afterwards): reduction in blood pressure
- contractile force ([2]; during the injection or one to two minutes afterwards, 2 dogs only): slight increase in the contractile force
- increase in the cardiac rhythm ([2]; during the injection or one to two minutes afterwards, according to the dose): 2-16 beats per minute
- left ventricular blood pressure ([2]; measured in two dogs only): followed the variations of the arterial blood pressure
- hypotension ([2]; two minutes after the injection): hypotension proportional to the dose injected
- Alteration in cardiac rhythm ([3]; 1 mg/kg intravenously, 4 dogs): -1 beats per minute
- Duration of the hypotension ([3]; 1 mg/kg intravenously, 4 dogs): 30
- Average pressure ([3]; 1 mg/kg intravenously, 4 dogs): -9±5.2
- Diastolic pressure ([3]; 1 mg/kg intravenously, 4 dogs): -10±5.7
- Systolic pressure ([3]; 1 mg/kg intravenously, 4 dogs): -8±4.6
- Alteration in cardiac rhythm ([3]; 4 mg/kg intravenously, 4 dogs): -15 beats per minute
- Duration of the hypotension ([3]; 4 mg/kg intravenously, 4 dogs): 60
- Diastolic pressure ([3]; 4 mg/kg intravenously, 4 dogs, * p<0.05): -18±5.5
- Average pressure ([3]; 4 mg/kg intravenously, 4 dogs): -16±5.4
- Systolic pressure ([3]; 4 mg/kg intravenously, 4 dogs): -15±5.3
- Alteration in cardiac rhythm ([3]; 8 mg/kg intravenously, 2 dogs): -22 beats per minute
- Average pressure ([3]; 8 mg/kg intravenously, 2 dogs): -38
- Diastolic pressure ([3]; 8 mg/kg intravenously, 2 dogs): -41
- Systolic pressure ([3]; 8 mg/kg intravenously, 2 dogs): -34
- Alteration in cardiac rhythm ([3]; 16 mg/kg intravenously, 4 dogs): -37 beats per minute
- Duration of the hypotension ([3]; 16 mg/kg intravenously, 4 dogs): > 50
- Average pressure [3, 13]: -54±4.3
- Systolic pressure [3, 13]: -45±7
- Diastolic pressure ([3]; 16 mg/kg intravenously, 4 dogs, *** p<0.001): -57±3.8
- biphasic action on the recorded parameters ([3]; different dosages): No biphasic action on the recorded parameters was observed
- action on the activity of noradrenaline [4]: without action on the activity of noradrenaline
- potentiation of the action of isoprenaline [5]: potentiates the action of isoprenaline in 3 dogs out of 5
- LD50 at 168 h ([6]; ip): 875 mg/kg
- LD50 at 168 h ([6]; po): > 2350 mg/kg
- LD50 at 168 h ([7]; ip): 700 mg/kg
- LD50 at 168 h ([7]; iv): 110 mg/kg
- LD50 at 168 h ([7]; po): 1600 mg/kg
- dose producing cardiac arrest [8]: 344 mg/kg
- biochemical and hematological characteristics [9]: No modification attributable to the treatment was observed
- histological examination of the organs [9]: normal
- mortality [9]: No mortality was observed
- weights of the dogs [9]: remained normal
- complete or partial analgesia [10, 14]: 5 patients
- slight analgesia [10, 14]: 4 patients
- moderate analgesia [10, 15]: one
- no analgesia [10, 15]: the last one no analgesia
- strong analgesia [10, 15]: Six
- complete analgesia [10, 16]: 5 patients
- partial analgesia [10, 16]: 2 patients
- slight analgesia [10, 16]: 2 patients
- complete analgesia [10, 17]: 9 patients
- moderate analgesia [10, 17]: 3 patients
- no analgesia [10, 17]: no analgesia in the remaining patient
- solubility in water (Solubility in water; dihydrochloride): very soluble
- solubility in water (Solubility in water; monohydrochloride): sparingly soluable in water
